According to ChEMBL document CHEMBL4033687, “Synthesis, biological evaluation and molecular docking studies of chromone hydrazone derivatives as α-glucosidase inhibitors” (Bioorg Med Chem Lett, 2017):
Active and inactive are the calls of the source. No cut-off for these calls is given here.

Target: not listed separately
Experiment: Inhibition of alpha glucosidase (unknown origin) using p-nitrophenyl alpha-D-glucopyranoside as substrate pretreated for 15 mins followed by substrate addition after 30 mins by spectrophotometric method
Set-up: species or system Homo sapiens

Row | Compound | IC50 [µM]
1 | Nc1ccc(C(=O)N/N=C/c2coc3cc(O)ccc3c2=O)cc1 | 30.8
2 | CCOC(=O)N/N=C/c1coc2ccccc2c1=O | > 100
3 | O=C(N/N=C/c1coc2cc(O)ccc2c1=O)c1cccs1 | 60.8
4 | O=C(N/N=C/c1coc2cc(O)ccc2c1=O)c1ccc(O)cc1 | 86.3
5 | CCOC(=O)N/N=C/c1coc2cc(O)ccc2c1=O | 95.4
6 | O=c1c(/C=N/Nc2cccc(Cl)c2)coc2cc(O)ccc12 | 96.7
7 | Cc1ccc(S(=O)(=O)N/N=C/c2coc3cc(O)ccc3c2=O)cc1 | > 100
8 | O=C(N/N=C/c1coc2cc(O)ccc2c1=O)c1ccccc1 | 45.7
9 | O=C(N/N=C/c1coc2ccccc2c1=O)c1cccs1 | > 100

The next lines start with the values.

Row | IC50 [µM] | Compound
10 | > 100 | O=C(N/N=C/c1coc2ccccc2c1=O)c1ccccc1
11 | > 100 | O=c1c(/C=N/Nc2cccc(Cl)c2)coc2ccccc12
12 | 26.7 | O=c1c(/C=N/Nc2ccccc2)coc2ccccc12
13 | 20.1 | NS(=O)(=O)c1ccc(N/N=C/c2coc3ccccc3c2=O)cc1
14 | 39.8 | O=C(N/N=C/c1coc2ccccc2c1=O)c1ccc(O)cc1
15 | 96.9 | Nc1ccc(C(=O)N/N=C/c2coc3ccccc3c2=O)cc1
16 | 25.2 | NS(=O)(=O)c1ccc(N/N=C/c2coc3cc(O)ccc3c2=O)cc1

Species on record: Homo sapiens
Experiment: Non-competitive inhibition of alpha glucosidase (unknown origin) at 10 to 30 uM using p-nitrophenyl alpha-D-glucopyranoside as substrate by line-weaver burk plot method

Row | Compound | inhibition
17 | NS(=O)(=O)c1ccc(N/N=C/c2coc3ccccc3c2=O)cc1 | Active
